Laboratory results from article PMC10622513, “A fluorogenic, peptide-based probe for the detection of Cathepsin D in macrophages” (Communications Chemistry, 2023).
Entries after “also recorded” stand apart in the source; their conditions may differ.

Key:
[1] = parameters: method as in PMID 29876538; conditions: acids such as TFA or HCl; cited from earlier work
Text: The Methyl Red (MR) quencher was incorporated by coupling Fmoc-Lys(MR)-OH[20] onto a Rink-amide functionalised polystyrene resin (0.7 mmol/g), followed by the substrate sequence, using DIC and Oxyma as the coupling combination. The use of Fmoc-Lys(MR)-OH as a building block avoided the need for orthogonal deprotection on the resin[27],[28]. A bis-ethylene glycol spacer was introduced as the last amino acid before the fluorophore to increase hydrophilicity and promote aqueous solubility of the probe. The BODIPY (1,3,5,7-tetramethyl-8-phenyl-4,4-difluoroboradiazaindacene) fluorophore chosen as p ...

[2] = test system: human cathepsin D; conditions: cited from earlier work
Text: Herein, we report the design and synthesis of a fluorogenic probe, based on a specific substrate for CatD, which provides an OFF→ON signal upon activation with good signal amplification. […] When choosing a substrate to build an optical probe to be used in cells and potentially in vivo, control of cross-reactivities is vital and it is important to design a specific substrate that is not ...

[3] = cited from earlier work
Text: The new probe designed here was FRET-based, with a BODIPY fluorophore at the N-terminus, while the C-terminal Gln was replaced with a Lys residue functionalised with a quencher (Methyl Red, λmax 500 nm)[20].

[4] = test system: CatD activity in human monocyte-derived macrophages (MDM); test: Confocal imaging of CatD activity in monocyte-derived macrophages; type: cell-based; conditions: Pepstatin A 20 μM, S. pneumoniae MOI 10:1, CatD-P3 10 μM
Method: Confocal fluorescence microscopy (λex 488, λem 512 nm) images of the detection of CatD activity in monocyte-derived macrophages. […] Mock infected macrophages (no bacteria) were used as a control (left panel). […] At 10 h the cells were washed, fixed in 2% paraformaldehyde and cell nuclei were counter-stained with DAPI (λex 405, λem 461 nm).
Human MDM were matured in 24-well Corning tissue culture plates over 14 days from Peripheral Blood Mononuclear cells obtained healthy volunteers by informed written consent, under ethical approval 21-EMREC-041. Following maturation, the MDM were removed from wells by treatment with Accutase (BioLegend) and re-seeded onto iBidi 8-well chamber slides. […] Following fixation, cells were washed again with 3 × PBS, with DAPI (0.1 µg/mL) added in the 2nd PBS wash for 10 min.
In these experiments, macrophages were incubated for 6 h in the presence or absence (Mock)
(20 μM) was added aoer 4 h. At 10 h the cells were washed, ﬁxed in 2% paraformaldehyde and cell nuclei
were counter-stained with DAPI (λex 405, λem 461 nm).

Which stability to acids [1] does the source give for `CC1=CC(C)=[N+]2C1=C(c1ccccc1)c1c(C)cc(C)n1[B-]2(F)F` [BODIPY, 1,3,5,7-tetramethyl-8-phenyl-4,4-difluoroboradiazaindacene] here?
Its stability to acids is “not stable to acids”.

Which Km [2] does the source give for “Ala-Ile-Ala-Phe↑Phe-Ser-Arg-Gln [kallistatin, natural CatD substrate kallistatin, from which Pimenta et al. derived the substrate]” here?
The Km was 0.27 µM.

What about the kcat [2] of the same molecule?
Its kcat is 16.25 s⁻¹.

For `CC1=CC(C)=[N+]2C1=C(c1ccc(C(=O)ON3C(=O)CCC3=O)cc1)c1c(C)cc(C)n1[B-]2(F)F` [compound 2], which “fluorescence quantum yield Φ” value [3] is on record?
The value was 0.6.

And the “pH sensitivity of fluorescence” value [3]?
The value was “pH insensitive”.

Which “effect of Pepstatin A on CatD-P3 fluorescence in infected macrophages” value [4] does the source give for Pepstatin A here?
The value was “a decrease in the fluorescence signal; also recorded: prevented CatD-P3 activation resulting in reduced/no green fluorescence; also recorded: marked decrease in fluorescent signal”.
